The text below walks through data of patent publication US20090247559A1 (Exelixis, Inc., priority 2007, published 2009).

In one assay the target is CDC7 (Homo sapiens, UniProt O00311). Nature of the assay: CDC7 inhibition, biochemical chemiluminescence assay (Kinase Glo, IC50 determination). The method, boiled down: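 CDC7 enzyme preincubated with compound 10 min at ambient temperature, then ATP mix in Tris Base added; reaction 90 min at 24-27 °C. Remaining ATP quantified by Kinase Glo luminescence to give IC50.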
CDC7, sequence (O00311 whole entry): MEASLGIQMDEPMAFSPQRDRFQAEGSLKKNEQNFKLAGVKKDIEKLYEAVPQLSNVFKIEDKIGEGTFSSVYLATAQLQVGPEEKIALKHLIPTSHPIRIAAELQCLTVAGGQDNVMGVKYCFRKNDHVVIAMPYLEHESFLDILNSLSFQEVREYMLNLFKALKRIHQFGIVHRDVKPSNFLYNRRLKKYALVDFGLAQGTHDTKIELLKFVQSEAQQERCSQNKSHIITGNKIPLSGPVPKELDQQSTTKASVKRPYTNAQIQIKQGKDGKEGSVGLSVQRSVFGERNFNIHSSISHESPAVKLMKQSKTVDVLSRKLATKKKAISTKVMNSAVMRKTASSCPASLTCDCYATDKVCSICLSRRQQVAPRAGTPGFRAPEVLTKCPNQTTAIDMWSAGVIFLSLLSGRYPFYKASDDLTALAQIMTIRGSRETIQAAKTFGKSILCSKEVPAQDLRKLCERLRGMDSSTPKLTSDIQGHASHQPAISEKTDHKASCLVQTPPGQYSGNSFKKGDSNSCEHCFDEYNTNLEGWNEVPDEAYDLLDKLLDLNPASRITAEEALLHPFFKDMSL
CDC7, sequence (Q9UBU7 whole entry partner): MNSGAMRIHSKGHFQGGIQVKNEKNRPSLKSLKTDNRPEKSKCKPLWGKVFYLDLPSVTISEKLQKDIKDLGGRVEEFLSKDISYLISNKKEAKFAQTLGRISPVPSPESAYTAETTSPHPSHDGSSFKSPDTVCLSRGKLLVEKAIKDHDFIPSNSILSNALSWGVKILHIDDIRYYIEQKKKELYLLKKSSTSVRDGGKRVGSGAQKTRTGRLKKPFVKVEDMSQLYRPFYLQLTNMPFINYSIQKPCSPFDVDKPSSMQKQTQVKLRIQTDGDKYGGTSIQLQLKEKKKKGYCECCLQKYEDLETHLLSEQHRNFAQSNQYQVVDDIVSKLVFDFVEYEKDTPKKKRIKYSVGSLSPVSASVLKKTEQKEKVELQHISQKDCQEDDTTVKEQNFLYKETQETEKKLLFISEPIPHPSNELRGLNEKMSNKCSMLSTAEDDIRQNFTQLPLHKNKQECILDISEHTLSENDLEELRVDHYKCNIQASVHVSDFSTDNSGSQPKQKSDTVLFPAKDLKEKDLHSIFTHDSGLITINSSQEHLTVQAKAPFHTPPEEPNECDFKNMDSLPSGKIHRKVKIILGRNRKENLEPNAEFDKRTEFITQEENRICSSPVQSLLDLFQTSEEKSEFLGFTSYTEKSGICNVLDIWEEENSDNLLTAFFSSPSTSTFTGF

Assay [1] addresses PIM (PIM-1, PIM-2, and/or PIM-3). The experiment in a line: PIM-1, PIM-2 and PIM-3 inhibition, biochemical chemiluminescence assays (Kinase Glo, IC50 determination). To be noted: Table 1 activity class; PIM refers to PIM-1, PIM-2, and/or PIM-3; read-out: PIM IC50 (Activity B). (In general: In Kinase-Glo more light means more ATP remaining.)
The target of another assay is CK2 (Homo sapiens, UniProt P68400). Nature of the assay: CK2 inhibition, biochemical chemiluminescence holoenzyme assay (Kinase Glo, IC50 determination). The following applies: Table 1 activity class; symbol given only if active; read-out: CK2 IC50 (Activity C). The method, boiled down: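 Holoenzyme CK2 assay; compounds pre-incubated with substrate and enzyme, then reacted 150 min at 24-27° C. Remaining ATP measured as luminescence with Kinase Glo, and IC50 derived from the signal.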
CK2, sequence (P68400 whole entry): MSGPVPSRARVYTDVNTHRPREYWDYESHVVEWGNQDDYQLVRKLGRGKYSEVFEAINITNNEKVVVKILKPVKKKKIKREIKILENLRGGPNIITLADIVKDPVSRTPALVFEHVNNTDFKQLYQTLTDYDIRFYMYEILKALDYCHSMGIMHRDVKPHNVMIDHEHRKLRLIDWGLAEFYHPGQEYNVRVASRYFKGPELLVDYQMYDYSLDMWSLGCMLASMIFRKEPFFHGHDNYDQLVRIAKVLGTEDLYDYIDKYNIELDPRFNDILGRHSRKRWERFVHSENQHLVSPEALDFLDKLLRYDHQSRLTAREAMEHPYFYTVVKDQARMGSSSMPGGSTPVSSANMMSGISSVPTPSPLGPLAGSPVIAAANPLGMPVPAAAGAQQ
CK2, sequence (P67870 whole entry partner): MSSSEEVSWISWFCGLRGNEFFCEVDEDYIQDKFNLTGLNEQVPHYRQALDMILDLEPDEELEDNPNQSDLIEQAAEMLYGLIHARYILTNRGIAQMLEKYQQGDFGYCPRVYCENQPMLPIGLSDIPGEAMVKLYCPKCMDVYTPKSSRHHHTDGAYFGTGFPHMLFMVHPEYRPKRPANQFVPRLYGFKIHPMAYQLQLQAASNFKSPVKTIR

Where [2] appears, read: Table 1 activity class, symbol given only if active, read-out: CDC7 IC50 (Activity A).
Setting [3] is: compounds in Table 1, read-out: CDC7 IC50 value.
The mark [4] stands for this setting: CDC7 IC50 (Activity A), Table 1 activity class, symbol given only if active.

pIC50: −log10 of the molar value. Where a name gives a salt, the structure may show the parent alone. Read-outs that look alike come from different tables or passages of the source.

Broadly, the pIC50 is −log10 of the IC50, conventionally taken in molar units. For the molecule `O=c1c2oc3ccc(Br)cc3c2nc2n1CN1CCC[C@@H]21` [Compound 453, (13bS)-11-bromo-1,2,3,13b-tetrahydro-7H-[1]benzofuro[3,2-d]pyrrolo[1′,2′:3,4]imidazo[1,5-a]pyrimidin-7-one], the pIC50 is more than 5.00 on CDC7 (setting [2]), more than 7.00 at CDC7 (setting [3]), more than 5.00 in assay [1] and more than 5.00 on CK2.
With `C#Cc1ccc2oc3c(=O)[nH]c(CN4CC[C@H](O)C4)nc3c2c1` [Compound 458, 8-ethynyl-2-{[(3S)-3-hydroxypyrrolidin-1-yl]methyl}[1]benzofuro[3,2-d]pyrimidin-4(3H)-one], the pIC50 on CDC7 (setting [2]) was more than 5.00; at CDC7 (setting [3]), more than 7.00; in assay [1], more than 5.00; at CK2, more than 5.00.
Take `C[Si](C)(C)C#Cc1ccc2oc3c(=O)[nH]c(CN4CC[C@H](O)C4)nc3c2c1` [Compound 459, 2-{[(3S)-3-hydroxypyrrolidin-1-yl]methyl}-8-[(trimethylsilyl)ethynyl][1]benzofuro[3,2-d]pyrimidin-4(3H)-one]: the pIC50 (on CDC7 (setting [4]); in assay [1]; at CK2) was more than 5.00 each time.
With `CCc1ccc2oc3c(=O)[nH]c(CN4CC[C@H](O)C4)nc3c2c1` [Compound 460, 8-ethyl-2-{[(3S)-3-hydroxypyrrolidin-1-yl]methyl}[1]benzofuro[3,2-d]pyrimidin-4(3H)-one], the pIC50 (at CDC7 (setting [2]); in assay [1]; at CK2) was more than 5.00 throughout.
Turning to `CC(C)COc1cccc2oc3c(=O)[nH]c(CN4CC[C@H](O)C4)nc3c12` [Compound 469, 2-{[(3S)-3-hydroxypyrrolidin-1-yl]methyl}-9-[(2-methylpropyl)oxy][1]benzofuro[3,2-d]pyrimidin-4(3H)-one], the negative logarithm of the IC50 (pIC50) (at CDC7 (setting [2]); in assay [1]; on CK2) was more than 5.00 throughout.
As to `O=c1[nH]c([C@@H]2CCCN2)nc2c1oc1ccc(Br)cc12` [Compound 470, 8-bromo-2-[(2S)-pyrrolidin-2-yl][1]benzofuro[3,2-d]pyrimidin-4(3H)-one], the pIC50 was more than 5.00 at CDC7 (setting [2]), more than 7.00 on CDC7 (setting [3]), more than 5.00 in assay [1] and more than 5.00 at CK2.
As to `O=c1[nH]c([C@H]2CCCN2)nc2c1oc1ccc(Br)cc12` [Compound 471, 8-bromo-2-[(2R)-pyrrolidin-2-yl][1]benzofuro[3,2-d]pyrimidin-4(3H)-one], the pIC50 on CDC7 (setting [2]) was more than 5.00; at CDC7 (setting [3]) it was more than 7.00; in assay [1], more than 5.00; at CK2 it was more than 5.00.
`O=c1[nH]c(CN2CC[C@H](O)C2)nc2c1oc1ccc3c(c12)OCO3` [Compound 476, 9-{[(3S)-3-hydroxypyrrolidin-1-yl]methyl}[1,3]dioxolo[4,5][1]benzofuro[3,2-d]pyrimidin-7(8H)-one]: the pIC50 at CDC7 (setting [2]) is more than 5.00; on CDC7 (setting [3]), more than 7.00; in assay [1], more than 5.00; at CK2, more than 5.00.
As to `O=c1[nH]c([C@@H]2C[C@@H](O)CN2)nc2c1oc1ccc(Br)cc12` [Compound 488, 8-bromo-2-[(2S,4R)-4-hydroxypyrrolidin-2-yl][1]benzofuro[3,2-d]pyrimidin-4(3H)-one], the pIC50 was more than 5.00 at CDC7 (setting [2]), more than 7.00 at CDC7 (setting [3]), more than 5.00 in assay [1] and more than 5.00 on CK2.
For `N[C@@H](c1ccccc1)c1nc2c(oc3ccc(Br)cc32)c(=O)[nH]1` [Compound 489, 2-[(S)-amino(phenyl)methyl]-8-bromo[1]benzofuro[3,2-d]pyrimidin-4(3H)-one], the pIC50 on CDC7 (setting [2]) is more than 5.00; on CDC7 (setting [3]) it was more than 7.00; in assay [1] it was more than 5.00; at CK2, more than 5.00.
For the molecule `N[C@H](c1ccccc1)c1nc2c(oc3ccc(Br)cc32)c(=O)[nH]1` [Compound 490, 2-[(R)-amino(phenyl)methyl]-8-bromo[1]benzofuro[3,2-d]pyrimidin-4(3H)-one], the negative logarithm of the IC50 (pIC50) on CDC7 (setting [2]) is more than 5.00; at CDC7 (setting [3]) it was more than 7.00; in assay [1], more than 5.00; on CK2, more than 5.00.
`C[C@H](N)c1nc2c(oc3ccc(Br)cc32)c(=O)[nH]1` [Compound 492, 2-[(1S)-1-aminoethyl]-8-bromo[1]benzofuro[3,2-d]pyrimidin-4(3H)-one]: the negative logarithm of the IC50 (pIC50) at CDC7 (setting [2]) was more than 5.00; at CDC7 (setting [3]), more than 7.00; in assay [1] it was more than 5.00; at CK2 it was more than 5.00.
For `C[C@@H](N)c1nc2c(oc3ccc(Br)cc32)c(=O)[nH]1` [Compound 493, 2-[(1R)-1-aminoethyl]-8-bromo[1]benzofuro[3,2-d]pyrimidin-4(3H)-one], the pIC50 is more than 5.00 at CDC7 (setting [2]), more than 7.00 at CDC7 (setting [3]), more than 5.00 in assay [1] and more than 5.00 at CK2.
`CC(C)NCc1nc2c(oc3ccc(Br)cc32)c(=O)[nH]1` [Compound 496, 8-bromo-2-{[(1-methylethyl)amino]methyl}[1]benzofuro[3,2-d]pyrimidin-4(3H)-one]: the pIC50 on CDC7 (setting [2]) was more than 5.00; on CDC7 (setting [3]), more than 7.00; in assay [1], more than 5.00; at CK2, more than 5.00.
For `C[C@H](O)c1nc2c(oc3ccc(Br)cc32)c(=O)[nH]1` [Compound 497, 8-bromo-2-[(1S)-1-hydroxyethyl][1]benzofuro[3,2-d]pyrimidin-4(3H)-one], the pIC50 (on CDC7 (setting [2]); in assay [1]; on CK2) was more than 5.00 in each case.
Consider `O=c1[nH]c(CN2CC[C@H](CO)C2)nc2c1oc1ccc(Br)cc12` [Compound 498, 8-bromo-2-{[(3S)-3-(hydroxymethyl)pyrrolidin-1-yl]methyl}[1]benzofuro[3,2-d]pyrimidin-4(3H)-one], for which the pIC50 at CDC7 (setting [2]) was more than 5.00; on CDC7 (setting [3]) it was more than 7.00; in assay [1], more than 5.00; at CK2, more than 5.00.
As to `O=c1[nH]c(C2CCCO2)nc2c1oc1ccc(Br)cc12` (stereo not drawn) [Compound 499, 8-bromo-2-(tetrahydrofuran-2-yl)[1]benzofuro[3,2-d]pyrimidin-4(3H)-one], the pIC50 (on CDC7 (setting [2]); in assay [1]; on CK2) was more than 5.00 throughout.
Take `O=c1[nH]c([C@@H]2CSCN2)nc2c1oc1ccc(Br)cc12` [Compound 500, 8-bromo-2-[(4R)-1,3-thiazolidin-4-yl][1]benzofuro[3,2-d]pyrimidin-4(3H)-one]: the pIC50 (on CDC7 (setting [2]); in assay [1]; on CK2) was more than 5.00 each time.
On to `O=c1[nH]c([C@@H]2CC3CCCCC3N2)nc2c1oc1ccc(Br)cc12` (stereo partly drawn) [Compound 501, 8-bromo-2-[(2S)-octahydro-1H-indol-2-yl][1]benzofuro[3,2-d]pyrimidin-4(3H)-one], for which the negative-log IC50 (pIC50) at CDC7 (setting [4]) was more than 5.00; on CDC7 (CDC7 IC50 value, compounds in Table 1), more than 7.00; in assay [1] it was more than 5.00; at CK2 it was more than 5.00.
On to `CCC(CC)NCc1nc2c(oc3ccc(Br)cc32)c(=O)[nH]1` [Compound 502, 8-bromo-2-{[(1-ethylpropyl)amino]methyl}[1]benzofuro[3,2-d]pyrimidin-4(3H)-one], for which the pIC50 on CDC7 (setting [2]) was more than 5.00; on CDC7 (setting [3]) it was more than 7.00; in assay [1] it was more than 5.00; on CK2, more than 5.00.
As to `CC(C)(C)NCc1nc2c(oc3ccc(Br)cc32)c(=O)[nH]1` [Compound 503, 8-bromo-2-{[(1,1-dimethylethyl)amino]methyl}[1]benzofuro[3,2-d]pyrimidin-4(3H)-one], the pIC50 on CDC7 (setting [2]) is more than 5.00; on CDC7 (setting [3]), more than 7.00; in assay [1], more than 5.00; on CK2, more than 5.00.
Regarding `O=c1[nH]c(CNC2CCCCC2)nc2c1oc1ccc(Br)cc12` [Compound 504, 8-bromo-2-[(cyclohexylamino)methyl][1]benzofuro[3,2-d]pyrimidin-4(3H)-one], the pIC50 (at CDC7 (setting [2]); in assay [1]; on CK2) was more than 5.00 each time.
With `O=c1[nH]c([C@@H]2C=CCN2)nc2c1oc1ccc(Br)cc12` [Compound 505, 8-bromo-2-[(2S)-2,5-dihydro-1H-pyrrol-2-yl][1]benzofuro[3,2-d]pyrimidin-4(3H)-one], the pIC50 on CDC7 (setting [2]) was more than 5.00; on CDC7 (setting [3]), more than 7.00; in assay [1] it was more than 5.00; at CK2, more than 5.00.
With `O=c1[nH]c([C@@H]2CCCN2)nc2c1oc1ccccc12` [Compound 506, 2-[(2S)-pyrrolidin-2-yl][1]benzofuro[3,2-d]pyrimidin-4(3H)-one], the negative-log IC50 (pIC50) (at CDC7 (setting [2]); in assay [1]; at CK2) was more than 5.00 each time.
In the case of `O=c1[nH]c([C@@H]2CCCN2)nc2c1oc1ccc(Cl)cc12` [Compound 507, 8-Chloro-2-[(2S)-pyrrolidin-2-yl][1]benzofuro[3,2-d]pyrimidin-4(3H)-one Hydrochloride], the pIC50 at CDC7 (setting [2]) was more than 5.00; on CDC7 (setting [3]), more than 7.00; in assay [1], more than 5.00; at CK2, more than 5.00.
As for `CC(c1nc2c(oc3ccc(Br)cc32)c(=O)[nH]1)N1CC[C@H](O)C1` (stereo partly drawn) [Compound 508, 8-bromo-2-{1-[(3S)-3-hydroxypyrrolidin-1-yl]ethyl}[1]benzofuro[3,2-d]pyrimidin-4(3H)-one], the negative-log IC50 (pIC50) at CDC7 (setting [2]) was more than 5.00; at CDC7 (setting [3]) it was more than 7.00; in assay [1], more than 5.00; on CK2 it was more than 5.00.
